From US5258398A, “Antithrombotic diaminoalkanoic acid derivatives” (Rhone-Poulenc Rorer Pharmaceuticals Inc., priority 1991, dated 1993) come the findings set out here.

A value given as a limit tells only on which side of the number the result lay.

One assay relates to fixed activated platelets. Put plainly: Platelet Aggregation Assay (inhibition of fibrinogen-mediated aggregation of fixed-activated platelets). Conditions: human fibrinogen 250 μg/ml, fixed thrombin-activated human platelets. Format: cell-based. From the text:
(§1) The effectiveness of compounds of the present invention as inhibitors of thrombus formation and platelet aggregation may be determined by the following pharmacologic tests which evaluate the inhibition of fibrinogen-mediated platelet aggregation and fibrinogen binding to thrombin-stimulated platelets by said compounds.
(§2) The Platelet Aggregation Assay is based on that described in Blood 66 (4), 946-952 (1985). The Fibrinogen-Binding Assay is essentially that of Ruggeri, Z. M., et al., Proc. Natl. Acad. Sci. USA 83, 5708-5712 (1986) and Plow, E. F., et al., Proc. Natl. Acad. Sci., USA 82, 8057-8061 (1985).
Preparation of Fixed-Activated Platelets
Platelets are isolated from human platelet concentrates using the gel-filtration technique as described by Marguerie, G. A., et al., J. Biol. Chem. 254, 5357-5363 (1979) and Ruggeri, Z. M., et al., J. Clin. Invest. 72, 1-12 (1983). The platelets are suspended at a concentration of 2×10^8 cells/ml in a modified calcium-free Tyrode's buffer containing 127 mM sodium chloride, 2 mM magnesium chloride, 0.42 mM Na2 HPO4, 11.9 mM NaHCO3, 2.9 mM KCl, 5.5 mM glucose, 10 mM HEPES, at a pH of 7.35 and 0.35% human serum albumin (HSA). These washed platelets are activated by addition of human α-thrombin at a final concentration of 2 units/ml, followed by thrombin inhibitor I-2581 at a final concentration of 40 μM. To the activated platelets is added paraformaldehyde to a final concentration of 0.50% and this incubated at room temperature for 30 minutes. The fixed activated platelets are then collected by centrifugation at 650×g for 15 minutes. The platelet pellets are washed four times with the above Tyrode's-0.35% HSA buffer and resuspended to 2×10^8 cells/ml in the same buffer.
Platelet Aggregation Assay
The fixed activated platelets are incubated with a selected dose of the compound to be tested for platelet aggregation inhibition for one minute and aggregation initiated by addition of human fibrinogen to a final concentration of 250 μg/ml. A platelet aggregation profiler Model PAP-4 is used to record the platelet aggregation. The extent of inhibition of aggregation is expressed as the percentage of the rate of aggregation observed in the absence of inhibitor. IC50, i.e., the amount of inhibitor required to reduce the aggregation rate by 50%, is then calculated for each compound (see, for example, Plow, E. F., et al., Proc. Natl. Acad. Sci., USA 82, 8057-8061 (1985)).
As usually defined, the IC50 is the concentration that gives 50% inhibition. `N=C(N)NCCCCCCCC(=O)NC(CC(=O)O)NC(=O)CCCCCCCNC(=N)N` (stereo not shown) [Example 1, N,N'-bis-(8-guanidino)octanoyl-3,3-diaminopropionic acid]: the IC50 is 120 nM.

Compound `N=C(N)NCCCCCCCCC(=O)N[C@H](CC(=O)O)NC(=O)CCCCCCCNC(=N)N` [Example 2, (3S)-N-(8-guanidino)octanoyl-N'-(9-guanidino)nonanoyl-3,3-diaminopropionic acid] returned an IC50 of 1300 nM.

`N=C(N)NCCCCCCC(=O)NC(CC(=O)O)NC(=O)CCCCCCNC(=N)N` (stereo not shown) [Example 4, N,N'-bis-(7-guanidino)heptanoyl-3,3-diaminopropionic acid] gave an IC50 of 2800 nM.

`N=C(N)NCCCCCCCCC(=O)NC(CC(=O)O)NC(=O)CCCCCCCCNC(=N)N` (stereo not shown) [Example 5, N,N'-bis-(9-guanidino)nonanoyl-3,3-diaminopropionic acid] had an IC50 of 140 nM.

Regarding `N=C(N)NCCCCCCCCC(=O)N[C@H](CC(=O)O)NC(=O)CCCCCCNC(=N)N` [Example 6, (3S)-N-(7-guanidino)heptanoyl-N'-(9-guanidino)nonanoyl-3,3-diaminopropionicacid], the IC50 stood at 2800 nM.

In turn, `N=C(N)NCCCCCCCC(=O)N[C@H](CC(=O)O)NC(=O)CCCCCCNC(=N)N` [Example 7, (3S)-N-(7-guanidino)heptanoyl-N'-(8-guanidino)octanoyl-3,3-diaminopropionicacid] yielded an IC50 of 740 nM.

`N=C(N)NCCCCCCCCC(=O)N[C@@H](CC(=O)O)NC(=O)CCCCCCCNC(=N)N` [Example 8, (3R)-N-(8-guanidino)octanoyl-N'-(9-guanidino)nonanoyl-3,3-diaminopropionic acid] registered an IC50 of 300 nM.

The compound `N=C(N)NCCCCCCCC(=O)N[C@H](CC(=O)O)NC(=O)[C@@H](N)CCCNC(=N)N` [Example 9, (3S)-N-L-arginyl-N'-(8-guanidino)octanoyl-3,3-diaminopropionic acid] came in with an IC50 of 9800 nM.

As to `N=C(N)NCCCCCCCCC(=O)N[C@@H](CC(=O)O)NC(=O)CCCCCCNC(=N)N` [Example 10, (3R)-N-(7-guanidino)heptanoyl-N'-(9-guanidino)nonanoyl-3,3-diaminopropionicacid], the IC50 turned out to be 120 nM.

The compound `N=C(N)NCCCCCCCC(=O)N[C@@H](CC(=O)O)NC(=O)CCCCCCNC(=N)N` [Example 11, (3R)-N-(7-guanidino)heptanoyl-N'-(8-guanidino)octanoyl-3,3-diaminopropionicacid] returned an IC50 of 320 nM.

On to `CC(C)CC(=O)N[C@H](CC(=O)O)NC(=O)CCCCCCCNC(=N)N` [Example 12, (3R)-N-(8-guanidino)octanoyl-N'-(3-methyl)butanoyl-3,3-diaminopropionic acid], for which inhibition was half-maximal at 2000 nM (IC50).

Take `CC[C@@H](C)[C@@H](NC(=O)CCCCNC(=N)N)C(=O)N[C@H](CC(=O)O)NC(=O)CCCCCCCCNC(=N)N` [Example 15, (3R)-N-[N-[(5-guanidino)pentanoyl]-D-isoleucyl]-N'-(9-guanidino)nonanoyl-3,3-diaminopropionic acid]: the midpoint of inhibition, the IC50, lay at 25000 nM.

`CC[C@H](C)[C@H](NC(=O)CCCCNC(=N)N)C(=O)N[C@H](CC(=O)O)NC(=O)CCCCCCCCNC(=N)N` [Example 17]: half-maximal inhibition (IC50) required 17500 nM.

The compound `N=C(N)NCCCCCCCC(=O)NC(CCC(=O)O)NC(=O)CCCCCCCNC(=N)N` (stereo not shown) [Example 18, N,N'-bis-(8-guanidino)octanoyl-4,4-diaminobutanoic acid] came in with a concentration for half-maximal inhibition (IC50) of over 100000 nM.

The test system of another assay is thrombin-stimulated platelets. Briefly: Fibrinogen-Binding Assay (inhibition of 125I-fibrinogen binding to platelets). Conditions: 125I-labeled fibrinogen 0.176 μmol/liter (60 μg/ml); 22°-25° C., 30 minutes; read-out: Inhibition of 125I-Fibrinogen Binding to Platelet (IC50).
Text: as §1, §2
Platelets are washed free of plasma constituents by the albumin density-gradient technique of Walsh, P. N., et al., Br. J. Haematol. 281-296 (1977), as modified by Trapani-Lombardo, V., et al., J. Clin Invest. 76, 1950-1958 (1985). […] The platelet pellet is then separated from the rest of the mixture to determine platelet-bound radioactivity. Nonspecific binding is measured in mixtures containing an excess of unlabeled ligand. When binding curves are analyzed by Scatchard analysis, nonspecific binding is derived as a fitted parameter from the binding isotherm by means of a computerized program (Munson, P. J., Methods Enzymol. 92, 542-576 (1983)). […]
Take `N=C(N)NCCCCCCCC(=O)NC(CC(=O)O)NC(=O)CCCCCCCNC(=N)N` (stereo not shown) [Example 1, N,N'-bis-(8-guanidino)octanoyl-3,3-diaminopropionic acid]: the IC50 was 70 nM.

On to `N=C(N)NCCCCCCCC(=O)N[C@H](CC(=O)O)NC(=O)[C@@H](N)CCCNC(=N)N` [Example 9, (3S)-N-L-arginyl-N'-(8-guanidino)octanoyl-3,3-diaminopropionic acid], for which the IC50 came out at 1200 nM.
